pIC50, pKd: −log10 of the molar value. Active and inactive are the calls of the source. The calls are words filed in the database; no cut-off is given here.
Legend:
CDK2/Cyclin A1 = CDK2/Cyclin A1 (Homo sapiens, UniProt P24941); type: protein-complex assay
Description: Inhibition of CDK2/Cyclin A1 (unknown origin) at 1 uM using histone H1 as substrate preincubated for 20 mins followed by 33P-ATP addition and measured after 2 hrs by filter binding method

[1] = molecular target: T1, Receptor-type tyrosine-protein kinase FLT3 (Homo sapiens, UniProt P36888, ITD)
[2] = molecular target: Cyclin-dependent kinase 1/cyclin B1 (Homo sapiens, UniProt P06493); assay: Inhibition of CDK1/cyclin B1 (unknown origin) in presence of [32P]gammaATP by image analyser; type: protein-complex assay
[3] = molecular target: Cyclin-dependent kinase 2/cyclin E1 (Homo sapiens, UniProt P24941); assay: Inhibition of CDK2/cyclin E1 (unknown origin) in presence of [32P]gammaATP by image analyser; type: protein-complex assay
CDK2/Cyclin A2 = CDK2/Cyclin A2 (Homo sapiens, UniProt P24941); assay: Inhibition of CDK2/cyclin A2 (unknown origin) in presence of [32P]gammaATP by image analyser; type: protein-complex assay
CDK9/cyclin T1 = CDK9/cyclin T1 (Homo sapiens, UniProt P50750); assay: Inhibition of CDK9/cyclin T1 (unknown origin) in presence of [32P]gammaATP by image analyser; type: protein-complex assay
MOLM-13 = assay: Antiproliferative activity against human MOLM-13 cells assessed as cell death measured after 72 hrs by resazurin dye based assay; type: functional; details: MOLM-13, 72 h
MOLM-14 [4] = assay: Antiproliferative activity against human MOLM-14 cells assessed as cell death measured after 72 hrs by resazurin dye based assay; type: functional; details: MOLM-14, 72 h
MOLM-14 [5] = assay: Antiproliferative activity against human MOLM-14 cells harboring F691L mutant assessed as cell death measured after 72 hrs by resazurin dye based assay; type: functional; details: MOLM-14, 72 h
SEM cells = assay: Antiproliferative activity against human SEM cells assessed as cell death measured after 72 hrs by resazurin dye based assay; type: functional
CCRF-CEM = assay: Antiproliferative activity against human CCRF-CEM cells assessed as cell death measured after 72 hrs by resazurin dye based assay; type: functional
THP-1 = assay: Antiproliferative activity against human THP-1 cells assessed as cell death measured after 72 hrs by resazurin dye based assay; type: functional; details: THP-1, 72 h
U-937 = assay: Antiproliferative activity against human U-937 cells assessed as cell death measured after 72 hrs by resazurin dye based assay; type: functional; details: U-937, 72 h
BaF3 [6] = assay: Antiproliferative activity against mouse BaF3 cells assessed as cell death measured after 72 hrs by resazurin dye based assay; type: functional; details: BaF3, 72 h
BaF3 [7] = assay: Antiproliferative activity against mouse BaF3 cells harboring FLt3 ITD mutant assessed as cell death measured after 72 hrs by resazurin dye based assay; type: functional; details: BaF3, 72 h
[8] = system: Receptor-type tyrosine-protein kinase FLT3 (Homo sapiens), P36888 [D835Y]; assay: Inhibition of FLT3 D835Y (unknown origin) assessed as residual activity at 500 nM
[9] = system: Receptor-type tyrosine-protein kinase FLT3 (Homo sapiens), P36888 [UNDEFINED MUTATION]; assay: Inhibition of FLT3 ITD (unknown origin) assessed as residual activity at 500 nM
[10] = molecular target: Leucine-rich repeat serine/threonine-protein kinase 2 (Homo sapiens) (UniProt Q5S007); assay: Inhibition of LRRK2 (unknown origin) assessed as residual activity at 500 nM
[11] = molecular target: Maternal embryonic leucine zipper kinase (Homo sapiens) (UniProt Q14680); assay: Inhibition of MELK (unknown origin) assessed as residual activity at 500 nM
[12] = molecular target: Dual specificity protein kinase CLK1 (Homo sapiens) (UniProt P49759); assay: Inhibition of CLK1 (unknown origin) assessed as residual activity at 500 nM
[13] = molecular target: NT-3 growth factor receptor (Homo sapiens) (UniProt Q16288); assay: Inhibition of TRKC (unknown origin) assessed as residual activity at 500 nM
[14] = molecular target: T1, Receptor-type tyrosine-protein kinase FLT3; assay: Binding affinity to human partial length FLT3 ITD mutant expressed in bacterial expression system by KdELECT Discover assay
[15] = molecular target: Receptor-type tyrosine-protein kinase FLT3 (Homo sapiens, UniProt P36888, D835V); assay: Binding affinity to human partial length FLT3 ITD D835V mutant expressed in mammalian expression system by KdELECT Discover assay
[16] = molecular target: Receptor-type tyrosine-protein kinase FLT3 (Homo sapiens, UniProt P36888, F691L); assay: Binding affinity to human partial length FLT3 ITD F691L mutant expressed in mammalian expression system by KdELECT Discover assay
[17] = molecular target: Receptor-type tyrosine-protein kinase FLT3 (Homo sapiens) (UniProt P36888); assay: Inhibition of FLT3 in human MV4-11 cells assessed as STAT5 phosphorylation at Y694 at 20 to 100 nM incubated for 1 hrs by Western blot analysis; type: cell-based; details: dose 20-100 nM
MV4-11 [18] = assay: Induction of apoptosis in human MV4-11 cells assessed as caspase 3 activation using fluorescent substrate Ac-DEVD-AMC at 100 nM incubated for 24 hrs by Western blot analysis; type: functional, cell-based
MV4-11 [19] = assay: Induction of apoptosis in human MV4-11 cells assessed as caspase 7 activation using fluorescent substrate Ac-DEVD-AMC at 100 nM incubated for 24 hrs by Western blot analysis; type: functional, cell-based
MV4-11 [20] = assay: Induction of apoptosis in human MV4-11 cells assessed as increase in cleaved PARP1 level at 100 nM incubated for 24 hrs by Western blot analysis; type: functional, cell-based
MV4-11 [21] = assay: Induction of apoptosis in human MV4-11 cells assessed as decrease in MCL1 level at 100 nM incubated for 24 hrs by Western blot analysis; type: functional, cell-based
MV4-11 [22] = assay: Induction of apoptosis in human MV4-11 cells assessed as effect on Bcl2 level at 100 nM incubated for 24 hrs by Western blot analysis; type: functional, cell-based
MV4-11 [23] = assay: Antitumor activity against human MV4-11 cells xenografted in NRG mouse assessed as tumor growth inhibition treated at 50 mg/kg, po via gavage daily for 5 days in a week after 15 days of implantation measured after 21 days by luciferase based relative to control; type: functional; details: MV4-11, po, 504 h, time 21 day
K562 = assay: cells; details: Homo sapiens, K562, 72 h
Description: Antiproliferative activity against human K562 cells assessed as cell death measured after 72 hrs by resazurin dye based assay

MV4-11 [24] = assay: cells; details: Homo sapiens, MV4-11, 72 h
Description: Antiproliferative activity against human MV4-11 cells assessed as cell death measured after 72 hrs by resazurin dye based assay

CDK9/cyclin T1, sequence (O60563 whole entry): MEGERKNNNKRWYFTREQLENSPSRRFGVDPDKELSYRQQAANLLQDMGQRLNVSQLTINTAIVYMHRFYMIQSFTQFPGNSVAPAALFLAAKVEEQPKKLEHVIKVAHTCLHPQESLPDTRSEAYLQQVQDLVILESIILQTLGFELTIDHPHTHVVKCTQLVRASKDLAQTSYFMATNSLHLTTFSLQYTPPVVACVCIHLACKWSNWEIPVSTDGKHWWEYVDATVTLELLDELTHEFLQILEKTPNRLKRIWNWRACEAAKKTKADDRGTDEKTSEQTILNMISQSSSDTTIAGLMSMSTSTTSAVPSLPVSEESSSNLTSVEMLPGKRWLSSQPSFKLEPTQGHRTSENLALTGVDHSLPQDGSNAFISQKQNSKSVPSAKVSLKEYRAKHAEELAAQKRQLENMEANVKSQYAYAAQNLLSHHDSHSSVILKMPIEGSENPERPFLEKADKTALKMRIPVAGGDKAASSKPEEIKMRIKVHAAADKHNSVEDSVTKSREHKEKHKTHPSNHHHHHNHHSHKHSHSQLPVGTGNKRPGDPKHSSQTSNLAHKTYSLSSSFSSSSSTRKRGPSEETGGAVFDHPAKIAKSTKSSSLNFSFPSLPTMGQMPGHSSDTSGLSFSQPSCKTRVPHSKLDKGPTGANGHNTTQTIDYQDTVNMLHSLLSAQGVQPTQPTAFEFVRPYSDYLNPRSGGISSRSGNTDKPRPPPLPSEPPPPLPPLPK
CDK9/cyclin T1, sequence (P50750 whole entry): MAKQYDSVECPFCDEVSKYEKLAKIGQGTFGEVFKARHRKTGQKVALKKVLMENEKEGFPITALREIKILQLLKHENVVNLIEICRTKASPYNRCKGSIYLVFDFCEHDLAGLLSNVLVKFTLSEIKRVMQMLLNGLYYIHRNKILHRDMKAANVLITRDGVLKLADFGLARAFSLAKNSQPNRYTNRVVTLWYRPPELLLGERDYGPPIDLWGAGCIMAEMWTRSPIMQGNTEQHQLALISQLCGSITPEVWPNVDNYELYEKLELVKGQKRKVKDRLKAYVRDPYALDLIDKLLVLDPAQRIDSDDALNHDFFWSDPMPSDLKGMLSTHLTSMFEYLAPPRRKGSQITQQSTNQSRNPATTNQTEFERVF
Maternal embryonic leucine zipper kinase (Homo sapiens), sequence (Q14680 whole entry, looked up): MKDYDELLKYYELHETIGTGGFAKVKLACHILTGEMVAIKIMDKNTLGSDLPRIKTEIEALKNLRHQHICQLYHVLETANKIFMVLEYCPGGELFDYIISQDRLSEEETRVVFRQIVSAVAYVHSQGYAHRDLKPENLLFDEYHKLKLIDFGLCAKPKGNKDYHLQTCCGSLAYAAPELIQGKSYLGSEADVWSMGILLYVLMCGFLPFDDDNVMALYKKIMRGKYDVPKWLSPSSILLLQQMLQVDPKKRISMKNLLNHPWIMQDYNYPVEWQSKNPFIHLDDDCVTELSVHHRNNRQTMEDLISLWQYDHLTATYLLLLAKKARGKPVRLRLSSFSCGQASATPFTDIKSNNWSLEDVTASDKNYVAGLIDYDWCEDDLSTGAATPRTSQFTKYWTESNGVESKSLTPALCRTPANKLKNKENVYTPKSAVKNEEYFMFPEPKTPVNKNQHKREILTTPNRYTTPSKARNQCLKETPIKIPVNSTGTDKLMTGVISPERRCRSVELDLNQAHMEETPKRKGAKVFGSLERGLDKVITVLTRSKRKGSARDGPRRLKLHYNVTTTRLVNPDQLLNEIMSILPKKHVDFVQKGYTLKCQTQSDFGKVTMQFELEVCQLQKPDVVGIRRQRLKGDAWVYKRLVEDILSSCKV
Leucine-rich repeat serine/threonine-protein kinase 2 (Homo sapiens), sequence (Q5S007 whole entry): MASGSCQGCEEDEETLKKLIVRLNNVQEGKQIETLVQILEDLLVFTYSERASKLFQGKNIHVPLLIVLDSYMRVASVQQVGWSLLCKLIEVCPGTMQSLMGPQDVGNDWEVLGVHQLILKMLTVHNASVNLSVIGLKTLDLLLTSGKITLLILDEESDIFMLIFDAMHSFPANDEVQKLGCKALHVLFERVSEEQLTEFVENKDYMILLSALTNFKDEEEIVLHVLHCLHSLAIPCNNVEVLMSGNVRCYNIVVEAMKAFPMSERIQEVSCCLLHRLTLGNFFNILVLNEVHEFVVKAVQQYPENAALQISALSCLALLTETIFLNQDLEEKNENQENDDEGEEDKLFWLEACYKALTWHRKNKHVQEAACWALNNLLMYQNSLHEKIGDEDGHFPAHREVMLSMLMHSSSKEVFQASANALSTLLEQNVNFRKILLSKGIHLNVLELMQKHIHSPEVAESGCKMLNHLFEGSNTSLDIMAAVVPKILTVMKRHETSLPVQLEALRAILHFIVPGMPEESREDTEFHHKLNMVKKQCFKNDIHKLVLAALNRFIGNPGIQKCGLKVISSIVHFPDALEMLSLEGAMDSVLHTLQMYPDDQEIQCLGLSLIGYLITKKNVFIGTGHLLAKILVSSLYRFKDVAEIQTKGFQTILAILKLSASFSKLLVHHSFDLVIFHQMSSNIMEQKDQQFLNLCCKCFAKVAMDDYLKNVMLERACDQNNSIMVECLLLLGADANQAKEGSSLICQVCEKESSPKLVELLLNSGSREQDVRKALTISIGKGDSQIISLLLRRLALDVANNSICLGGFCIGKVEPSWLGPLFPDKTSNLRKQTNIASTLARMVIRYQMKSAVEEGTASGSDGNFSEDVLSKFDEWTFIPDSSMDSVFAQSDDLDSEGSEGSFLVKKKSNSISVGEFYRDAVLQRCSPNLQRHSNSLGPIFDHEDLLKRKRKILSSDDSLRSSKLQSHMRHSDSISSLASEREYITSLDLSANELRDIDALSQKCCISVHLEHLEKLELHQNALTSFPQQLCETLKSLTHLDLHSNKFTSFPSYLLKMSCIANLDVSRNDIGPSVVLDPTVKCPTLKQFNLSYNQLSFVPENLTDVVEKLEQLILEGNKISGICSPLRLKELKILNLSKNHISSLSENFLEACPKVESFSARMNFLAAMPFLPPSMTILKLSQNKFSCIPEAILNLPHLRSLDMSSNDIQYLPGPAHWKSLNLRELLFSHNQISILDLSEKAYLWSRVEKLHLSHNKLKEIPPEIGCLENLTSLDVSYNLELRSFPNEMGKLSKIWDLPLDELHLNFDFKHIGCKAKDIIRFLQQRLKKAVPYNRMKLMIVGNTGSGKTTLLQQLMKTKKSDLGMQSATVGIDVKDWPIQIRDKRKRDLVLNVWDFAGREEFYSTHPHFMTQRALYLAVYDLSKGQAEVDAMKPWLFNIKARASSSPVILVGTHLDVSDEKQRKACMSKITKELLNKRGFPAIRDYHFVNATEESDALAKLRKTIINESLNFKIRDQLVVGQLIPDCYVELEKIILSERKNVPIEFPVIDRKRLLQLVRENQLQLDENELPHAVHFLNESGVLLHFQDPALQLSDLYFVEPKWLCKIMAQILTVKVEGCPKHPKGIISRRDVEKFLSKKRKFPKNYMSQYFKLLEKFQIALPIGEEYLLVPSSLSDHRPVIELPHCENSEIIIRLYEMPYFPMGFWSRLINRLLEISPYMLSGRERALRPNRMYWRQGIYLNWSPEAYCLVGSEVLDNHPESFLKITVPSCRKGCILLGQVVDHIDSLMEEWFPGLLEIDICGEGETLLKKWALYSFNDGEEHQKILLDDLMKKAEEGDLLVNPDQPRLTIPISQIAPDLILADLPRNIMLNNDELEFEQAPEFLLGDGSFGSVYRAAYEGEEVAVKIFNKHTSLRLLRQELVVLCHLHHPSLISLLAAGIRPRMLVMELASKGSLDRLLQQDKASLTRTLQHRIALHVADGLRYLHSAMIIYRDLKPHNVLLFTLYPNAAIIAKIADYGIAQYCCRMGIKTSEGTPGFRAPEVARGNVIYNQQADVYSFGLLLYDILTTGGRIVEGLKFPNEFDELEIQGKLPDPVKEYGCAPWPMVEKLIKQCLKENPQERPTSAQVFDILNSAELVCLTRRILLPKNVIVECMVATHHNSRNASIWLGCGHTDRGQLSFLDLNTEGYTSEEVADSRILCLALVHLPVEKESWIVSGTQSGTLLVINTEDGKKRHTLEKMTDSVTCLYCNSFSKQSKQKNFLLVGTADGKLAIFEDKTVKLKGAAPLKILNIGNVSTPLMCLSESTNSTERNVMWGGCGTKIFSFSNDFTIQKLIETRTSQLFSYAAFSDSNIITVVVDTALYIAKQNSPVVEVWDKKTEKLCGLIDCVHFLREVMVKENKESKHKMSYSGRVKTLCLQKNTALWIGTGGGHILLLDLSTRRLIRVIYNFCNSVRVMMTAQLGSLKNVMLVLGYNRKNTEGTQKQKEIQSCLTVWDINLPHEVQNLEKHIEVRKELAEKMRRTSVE
Cyclin-dependent kinase 1/cyclin B1, sequence (P06493 whole entry): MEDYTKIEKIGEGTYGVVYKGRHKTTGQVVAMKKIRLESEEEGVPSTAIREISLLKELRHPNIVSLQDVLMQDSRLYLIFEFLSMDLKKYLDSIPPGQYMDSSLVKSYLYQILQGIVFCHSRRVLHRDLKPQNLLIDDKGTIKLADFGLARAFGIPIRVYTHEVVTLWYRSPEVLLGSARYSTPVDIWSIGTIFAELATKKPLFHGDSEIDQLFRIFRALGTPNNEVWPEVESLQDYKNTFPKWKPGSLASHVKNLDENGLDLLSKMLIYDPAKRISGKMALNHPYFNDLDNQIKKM
Cyclin-dependent kinase 1/cyclin B1, sequence (P14635 whole entry, further chain): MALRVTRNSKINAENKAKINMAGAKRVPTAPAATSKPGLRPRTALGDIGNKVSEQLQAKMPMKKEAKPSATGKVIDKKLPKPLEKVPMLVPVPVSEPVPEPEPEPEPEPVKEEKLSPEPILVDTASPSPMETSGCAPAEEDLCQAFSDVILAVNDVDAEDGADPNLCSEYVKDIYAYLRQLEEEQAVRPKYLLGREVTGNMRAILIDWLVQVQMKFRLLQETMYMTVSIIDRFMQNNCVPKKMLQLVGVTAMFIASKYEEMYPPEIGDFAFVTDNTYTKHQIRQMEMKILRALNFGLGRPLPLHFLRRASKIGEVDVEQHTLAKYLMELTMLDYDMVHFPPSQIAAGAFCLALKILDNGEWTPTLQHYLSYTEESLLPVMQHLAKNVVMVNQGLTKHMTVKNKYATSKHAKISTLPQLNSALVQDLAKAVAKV

Cc1n[nH]c2ccc3nc(-c4c[nH]nc4C(F)(F)F)c4c(c3c12)CCCC4
pIC50 (CDK2/Cyclin A1): 6.37
pIC50 [1]: 8.22
pIC50 [2]: 6.80
pIC50 [3]: 6.59
pIC50 (CDK2/Cyclin A2): 6.37
pIC50 (CDK9/cyclin T1): < 6.00
pIC50 (MOLM-13): 7.17
pIC50 (MOLM-14 [4]): 7.59
pIC50 (MOLM-14 [5]): 7.28
pIC50 (SEM cells): 6.37
pIC50 (CCRF-CEM): 5.19
pIC50 (THP-1): 5.17
pIC50 (U-937): 5.54
pIC50 (BaF3 [6]): 3.82
pIC50 (BaF3 [7]): 7.21
Activity [8]: < 2.5%
Activity [9]: < 2.5%
Activity [10]: 4%
Activity [11]: 4%
Activity [12]: 4%
Activity [13]: 4%
pKd [14]: 8.80
pKd [15]: 9.14
pKd [16]: 8.89
inhibition [17]: Active
Activity (MV4-11 [18]): Active
Activity (MV4-11 [19]): Active
Activity (MV4-11 [20]): Active
Activity (MV4-11 [21]): Active
Activity (MV4-11 [22]): Active
inhibition in vivo at 50 mg/kg (MV4-11 [23]): 90%
pIC50 (K562): 5.01
pIC50 (MV4-11 [24]): 7.15
